Patent US4463009A, “Dialkyl 1-(2-pyridinylthio)-1,2-hydrazinedicarboxylate, N-oxides and their use as animal growth stimulants” (priority 1983, dated 1984)
≈ marks a conversion by molar mass, not a printed value.

Tests used:
[1] = test system: Ileal inoculum (filtrate) of Yorkshire barrow; experiment: in vitro incubation with inoculum from cannulated swine (ileal); type: cell-based; conditions: 5 hours at 37°
Protocol: A Yorkshire barrow is surgically prepared either with an ileal cannula, which is placed 15 cm. from the ileo-ceco-colic junction, or a cecal cannula, which placed midway between the apex and origin of the cecum. The animal is fed 4 times daily to restrict intake to 4.5% of body weight in a 30 kg animal or 2.5% of body weight in a 100 kg animal. The swine grower ration is:
Sampling of the material, via the cannula, begins 150-180 minutes following the first morning feeding and continues any time from 30-120 minutes thereafter, depending on the quantity of material needed. The sample is maintained in crushed ice, no cooler than 5°, and is gassed continuously with carbon dioxide. The collected material is filtered. The filtrate is the inoculum used for incubations of the test and control samples. […] Four blank control tubes, along with the test compound tubes, are incubated 5 hours at 37° with agitation. Four more killed tubes are included which are not incubated.
The tubes are each treated with 0.60 ml of a 25% solution of metaphosphoric acid, then, stored at -4° until analysis. Samples are thawed and centrifuged for 25 minutes at 20,000 r.p.m. The supernatent liquid is decanted, sampled for gas chromatography and automatic analysis. The results are fed into a computer for finishing to give figures in which the blank control value is 100%. Virginiamycin is used as a positive control.
*VFA refers to the total of volatile fatty acids, namely acetate,
propionate, isobutyrate, butyrate, isovalerate and valerate. LYS is
lysine, GLU is glucose and LAC is Llactic acid.

broiler chicks = experiment: Chick Growth Study; type: in vivo, chicken; conditions: 8 reps (8/rep)
Protocol: One day old broiler chicks, selected for weight, health and sex, are housed in an environmentally controlled room with temperature at 80° F. and humidity at 40%. Chicks are fed ad libitum. Water is offered ad libitum. A rye or corn basal ration is fed during the acclimation period (days 1 and 2), then, mixed with the compound under test or control conditions on days 3-17. Either 8 pens (64 chicks) or 16 pens (128 chicks) are used for each test or control group.
B. Representative results using diethyl 1-(2-pyridinylthio)-1,2-hydrazinedicarboxylate, N-oxide: […]

Staph. aureus = experiment: chemotherapeutic activity, m.i.c. against Staph. aureus; type: cell-based; conditions: Staphylococcus aureus
C. albicans = experiment: chemotherapeutic activity, m.i.c. against C. albicans; type: cell-based; conditions: Candida albicans
Strep. faecalis = experiment: chemotherapeutic activity, m.i.c. against Strep. faecalis; type: cell-based; conditions: Enterococcus faecalis
E. coli = experiment: chemotherapeutic activity, m.i.c. against E. coli; type: cell-based; conditions: Escherichia coli
[2] = (3) positive control, 166.67 ppm

Compound: virginiamycin [reference compound]
- GLU (glucose) ([1]; (3) positive control, 1.67 ppm): 393 % of control values
- LAC (L-lactic acid) ([1]; (3) positive control, 1.67 ppm): 0 % of control values
- LYS (lysine) ([1]; (3) positive control, 1.67 ppm): 99 % of control values
- VFA (total volatile fatty acids) ([1]; (3) positive control, 1.67 ppm): 255 % of control values
- GLU (glucose) ([1]; (3) positive control, 16.7 ppm): 464 % of control values
- LAC (L-lactic acid) ([1]; (3) positive control, 16.7 ppm): 12 % of control values
- LYS (lysine) ([1]; (3) positive control, 16.7 ppm): 141 % of control values
- VFA (total volatile fatty acids) ([1]; (3) positive control, 16.7 ppm): 114 % of control values
- GLU (glucose) [1, 2]: 496 % of control values
- LAC (L-lactic acid) [1, 2]: 14 % of control values
- LYS (lysine) [1, 2]: 144 % of control values
- VFA (total volatile fatty acids) [1, 2]: 86 % of control values

Compound: CCOC(=O)NN(Sc1cccc[n+]1[O-])C(=O)OCC [diethyl 1-(2-pyridinylthio)-1,2-hydrazinedicarboxylate, N-oxide]
- Weight, 17 day (broiler chicks; trial (1)): 102.0 % of Control
- Dead (broiler chicks; trial (1), 20 ppm in feed): 1
- Feed/Gain, days 3-10 (broiler chicks; trial (1), 20 ppm in feed): 102.2 % of Control
- Feed/Gain, days 3-17 (broiler chicks; trial (1), 20 ppm in feed): 101.7 % of Control
- Feed/Gain, days 10-17 (broiler chicks; trial (1), 20 ppm in feed): 101.7 % of Control
- Weight, 10 day (broiler chicks; trial (1), 20 ppm in feed): 96.4 % of Control
- Weight, 17 day (broiler chicks; trial (1), 20 ppm in feed): 103.2 % of Control
- Dead (broiler chicks; trial (1), 40 ppm in feed): 4
- Feed/Gain, days 3-10 (broiler chicks; trial (1), 40 ppm in feed): 103.3 % of Control
- Feed/Gain, days 3-17 (broiler chicks; trial (1), 40 ppm in feed): 98.4 % of Control
- Feed/Gain, days 10-17 (broiler chicks; trial (1), 40 ppm in feed): 95.0 % of Control
- Weight, 10 day (broiler chicks; trial (1), 40 ppm in feed): 90.9 % of Control
- Dead (broiler chicks; trial (2), 20 ppm in feed): 4
- Feed/Gain, days 3-10 (broiler chicks; trial (2), 20 ppm in feed): 96.8 % of Control
- Feed/Gain, days 3-17 (broiler chicks; trial (2), 20 ppm in feed): 96.4 % of Control
- Feed/Gain, days 10-17 (broiler chicks; trial (2), 20 ppm in feed): 96.5 % of Control
- Weight, 10 day (broiler chicks; trial (2), 20 ppm in feed): 103.5 % of Control
- Weight, 17 day (broiler chicks; trial (2), 20 ppm in feed): 103.4 % of Control
- Dead (broiler chicks; trial (3), 50 ppm in feed): 0
- Feed/Gain, days 3-10 (broiler chicks; trial (3), 50 ppm in feed): 97.1 % of Control
- Feed/Gain, days 3-17 (broiler chicks; trial (3), 50 ppm in feed): 93.6 % of Control
- Feed/Gain, days 10-17 (broiler chicks; trial (3), 50 ppm in feed): 85.2 % of Control
- Weight, 10 day (broiler chicks; trial (3), 50 ppm in feed): 93.2 % of Control
- Weight, 17 day (broiler chicks; trial (3), 50 ppm in feed): 102.8 % of Control
- GLU (glucose) ([1]; (1), 1.67 ppm): 166 % of control values
- LAC (L-lactic acid) ([1]; (1), 1.67 ppm): 91 % of control values
- LYS (lysine) ([1]; (1), 1.67 ppm): 109 % of control values
- VFA (total volatile fatty acids) ([1]; (1), 1.67 ppm): 91 % of control values
- GLU (glucose) ([1]; (1), 16.67 ppm): 237 % of control values
- LAC (L-lactic acid) ([1]; (1), 16.67 ppm): 81 % of control values
- LYS (lysine) ([1]; (1), 16.67 ppm): 152 % of control values
- VFA (total volatile fatty acids) ([1]; (1), 16.67 ppm): 72 % of control values
- GLU (glucose) ([1]; (1), 166.7 ppm): 379 % of control values
- LAC (L-lactic acid) ([1]; (1), 166.7 ppm): 54 % of control values
- LYS (lysine) ([1]; (1), 166.7 ppm): 194 % of control values
- VFA (total volatile fatty acids) ([1]; (1), 166.7 ppm): 47 % of control values
- GLU (glucose) ([1]; (2), 166.67 ppm): 845 % of control values
- LAC (L-lactic acid) ([1]; (2), 166.67 ppm): 139 % of control values
- LYS (lysine) ([1]; (2), 166.67 ppm): 110 % of control values
- VFA (total volatile fatty acids) ([1]; (2), 166.67 ppm): 55 % of control values
- MIC (Staph. aureus): 2 µg/mL (≈ 6.64 µM)
- MIC (C. albicans): 63 µg/mL (≈ 209 µM)
- MIC (Strep. faecalis): 3 µg/mL (≈ 9.96 µM)
- MIC (E. coli): 63 µg/mL (≈ 209 µM)
